Calls of active or inactive are those of the source. The calls are words filed in the database; no cut-off is given here.
How the values were obtained:
Cathepsin S [1] = target: T1, Cathepsin S (Homo sapiens, UniProt P25774); assay: Inhibition of human cathepsin S
Target sequence in this assay (P25774 whole entry): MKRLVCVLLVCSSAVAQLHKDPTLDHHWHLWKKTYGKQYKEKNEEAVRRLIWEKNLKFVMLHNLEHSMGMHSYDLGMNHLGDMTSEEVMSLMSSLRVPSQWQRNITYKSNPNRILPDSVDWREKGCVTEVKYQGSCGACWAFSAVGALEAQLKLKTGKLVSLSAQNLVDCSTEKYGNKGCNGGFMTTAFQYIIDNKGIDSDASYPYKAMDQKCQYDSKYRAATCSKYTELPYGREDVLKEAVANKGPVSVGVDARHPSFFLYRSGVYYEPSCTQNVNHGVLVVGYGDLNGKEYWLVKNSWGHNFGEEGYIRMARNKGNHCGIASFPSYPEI

Legumain (Homo sapiens) = target: T2, Legumain (Homo sapiens) (UniProt Q99538); assay: Inhibition of legumain upto 5 uM
T2 sequence (whole entry): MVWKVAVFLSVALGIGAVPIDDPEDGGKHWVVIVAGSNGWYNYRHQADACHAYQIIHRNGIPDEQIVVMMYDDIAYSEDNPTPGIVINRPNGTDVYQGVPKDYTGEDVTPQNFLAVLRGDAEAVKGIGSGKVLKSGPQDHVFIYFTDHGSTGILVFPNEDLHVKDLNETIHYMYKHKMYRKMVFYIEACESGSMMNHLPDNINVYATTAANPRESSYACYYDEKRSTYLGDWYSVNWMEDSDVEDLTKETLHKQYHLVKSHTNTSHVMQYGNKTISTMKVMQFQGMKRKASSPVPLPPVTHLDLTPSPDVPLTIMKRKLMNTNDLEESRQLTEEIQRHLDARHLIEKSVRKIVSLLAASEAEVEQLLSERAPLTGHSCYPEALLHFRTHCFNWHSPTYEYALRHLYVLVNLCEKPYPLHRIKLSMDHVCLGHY

[2] = target: T3, Cathepsin E (Homo sapiens) (UniProt P14091); assay: Inhibition of cathepsin E upto 5 uM
T3 sequence (whole entry): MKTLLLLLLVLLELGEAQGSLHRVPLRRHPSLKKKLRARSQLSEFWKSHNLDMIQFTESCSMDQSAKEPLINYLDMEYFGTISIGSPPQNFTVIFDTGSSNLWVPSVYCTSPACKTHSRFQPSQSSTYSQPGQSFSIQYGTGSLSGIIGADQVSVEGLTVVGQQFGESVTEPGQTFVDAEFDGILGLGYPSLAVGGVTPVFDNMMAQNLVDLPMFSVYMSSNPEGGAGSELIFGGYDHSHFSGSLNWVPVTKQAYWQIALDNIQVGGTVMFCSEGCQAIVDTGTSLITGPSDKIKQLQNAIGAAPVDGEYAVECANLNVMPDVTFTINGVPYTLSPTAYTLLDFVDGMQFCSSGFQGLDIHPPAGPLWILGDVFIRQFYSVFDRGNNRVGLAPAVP

[3] = target: Cathepsin B (Homo sapiens) (UniProt P07858); assay: Inhibition of cathepsin B upto 5 uM
[4] = target: Procathepsin L (Homo sapiens) (UniProt P07711); assay: Inhibition of cathepsin L upto 5 uM
Chain of Procathepsin L (Homo sapiens) (P07711 114-333 limits assumed): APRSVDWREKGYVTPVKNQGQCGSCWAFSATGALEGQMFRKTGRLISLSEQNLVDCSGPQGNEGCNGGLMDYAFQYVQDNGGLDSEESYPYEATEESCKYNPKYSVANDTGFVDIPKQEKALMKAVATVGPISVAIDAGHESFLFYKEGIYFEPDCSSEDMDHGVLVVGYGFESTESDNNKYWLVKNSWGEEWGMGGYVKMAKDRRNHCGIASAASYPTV

Cathepsin S [5] = target: T1, Cathepsin S; assay: Inhibition of cathepsin S in human JY cells upto 10 uM by invariant chain degradation assay; type: cell-based
Target sequence in this assay (P25774 115-331 limits assumed): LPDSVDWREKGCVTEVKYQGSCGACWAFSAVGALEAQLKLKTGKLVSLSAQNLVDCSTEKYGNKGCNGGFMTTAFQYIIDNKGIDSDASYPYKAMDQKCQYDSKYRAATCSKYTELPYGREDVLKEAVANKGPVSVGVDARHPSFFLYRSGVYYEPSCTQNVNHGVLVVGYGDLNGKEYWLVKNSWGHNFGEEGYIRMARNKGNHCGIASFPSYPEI

Cathepsin S [6] = target: T1, Cathepsin S; assay: Inhibition of cathepsin S in human JY cells by invariant chain degradation assay; type: cell-based
Target sequence in this assay (P25774 whole entry): as the sequence (P25774 whole entry) above

| IC50 (Cathepsin S [1]) [nM] | IC50 (Cathepsin S [6]) [nM] | SMILES | also measured |
| --- | --- | --- | --- |
| 195 |  | CS(=O)(=O)N1CCc2c(c(-c3ccc(Br)cc3)nn2CC(O)CN2CCC(c3c[nH]c4ncccc34)CC2)C1 (stereo unspecified) |  |
| 290 |  | CC(=O)N1CCc2c(c(-c3ccc(C(F)(F)F)cc3)nn2CC(O)CN2CCC(c3csc4cc(F)ccc34)CC2)C1 (stereo unspecified) |  |
| 360 |  | CC(=O)N1CCc2c(c(-c3ccc(C(F)(F)F)cc3)nn2CC(O)CN2CCC(c3coc4cc(F)ccc34)CC2)C1 (stereo unspecified) |  |
|  |  | CS(=O)(=O)N1CCc2c(c(-c3ccc(C(F)(F)F)cc3)nn2CC(O)CN2CCC(c3c[nH]c4ccncc34)CC2)C1 (stereo unspecified) | Activity (Legumain (Homo sapiens)): inactive; Activity [2]: inactive; Activity [3]: inactive; Activity [4]: inactive |
| 95 |  | CC(=O)N1CCc2c(c(-c3ccc(C(F)(F)F)cc3)nn2CC(O)CN2CCC(c3c[nH]c4ccc(Cl)cc34)CC2)C1 (stereo unspecified) | Activity (Cathepsin S [5]): inactive |
| 130 | 1800 | COC(=O)c1sc2cc(F)ccc2c1C1CCN(CCCn2nc(-c3ccc(C(F)(F)F)cc3)c3c2CCN(S(C)(=O)=O)C3)CC1 |  |
| 10 | 800 | N#Cc1ccccc1N1CCN(CC(Cn2nc(-c3ccc(I)cc3)c3c2CCN(C(N)=O)C3)OC(N)=O)CC1 (stereo unspecified) |  |
| 140 |  | COC(=O)c1sc2cc(F)ccc2c1C1CCN(CC(O)Cn2nc(-c3ccc(C(F)(F)F)cc3)c3c2CCN(C(C)=O)C3)CC1 (stereo unspecified) |  |
| 77 | 150 | CS(=O)(=O)N1CCc2c(c(-c3ccc(Br)cc3)nn2CC(O)CN2CCC(c3c[nH]c4ccncc34)CC2)C1 (stereo unspecified) |  |
| 10 | 800 | Cn1c(=O)n(C2CCN(CCCn3nc(-c4ccc(Cl)c(Cl)c4)c4c3CCN(S(C)(=O)=O)C4)CC2)c2ccccc21 |  |
|  |  | CS(=O)(=O)N1CCc2c(c(-c3ccc(C(F)(F)F)cc3)nn2CC(O)CN2CCC(c3c[nH]c4cccnc34)CC2)C1 (stereo unspecified) | Activity (Legumain (Homo sapiens)): inactive; Activity [2]: inactive; Activity [3]: inactive; Activity [4]: inactive |
| 220 |  | COC(=O)c1oc2cc(F)ccc2c1C1CCN(CC(O)Cn2nc(-c3ccc(C(F)(F)F)cc3)c3c2CCN(C(C)=O)C3)CC1 (stereo unspecified) |  |
| 180 |  | CS(=O)(=O)N1CCc2c(c(-c3ccc(C(F)(F)F)cc3)nn2CC(O)CN2CCC(c3csc4cc(F)ccc34)CC2)C1 (stereo unspecified) |  |
| 370 |  | CN(C)C(=O)c1sc2cc(F)ccc2c1C1CCN(CCCn2nc(-c3ccc(C(F)(F)F)cc3)c3c2CCN(S(C)(=O)=O)C3)CC1 |  |
|  |  | CS(=O)(=O)N1CCc2c(c(-c3ccc(C(F)(F)F)cc3)nn2CC(O)CN2CCC(c3c[nH]c4ncccc34)CC2)C1 (stereo unspecified) | Activity (Legumain (Homo sapiens)): inactive; Activity [2]: inactive; Activity [4]: inactive |
|  |  | CS(=O)(=O)N1CCc2c(c(-c3ccc(C(F)(F)F)cc3)nn2CC(O)CN2CCC(c3c[nH]c4cnccc34)CC2)C1 (stereo unspecified) | Activity (Legumain (Homo sapiens)): inactive; Activity [2]: inactive; Activity [3]: inactive; Activity [4]: inactive |
| 100 | > 10000 | CS(=O)(=O)N1CCc2c(c(-c3ccc(C(F)(F)F)cc3)nn2CCCN2CCC(c3c(C(=O)O)sc4cc(F)ccc34)CC2)C1 |  |

| SMILES | IC50 (Cathepsin S [1]) [nM] | IC50 (Cathepsin S [6]) [nM] | also measured |
| --- | --- | --- | --- |
| CS(=O)(=O)N1CCc2c(c(-c3ccc(C(F)(F)F)cc3)nn2CC(O)CN2CCC(N3C(=O)COc4ccccc43)CC2)C1 (stereo unspecified) | 10 | 800 |  |

Source: ChEMBL document CHEMBL1137473, “Pyrazole-based cathepsin S inhibitors with improved cellular potency” (Bioorg Med Chem Lett, 2007)
